{"source": "paper PMC11359809", "about": "“Probing the molecular basis for signal transduction through the Zinc-Activated Channel (ZAC)” (Biochemical pharmacology, 2021)", "key": {"WT m5-HT3AR": {"molecular_target": "T1, WT m5-HT3AR (Mus musculus, UniProt P23979)", "T1 construct": "expressed in transfected cells; host or cells: Xenopus oocytes injected with cRNA (pUNIV vector)", "T1 sequence (P23979 24-489)": "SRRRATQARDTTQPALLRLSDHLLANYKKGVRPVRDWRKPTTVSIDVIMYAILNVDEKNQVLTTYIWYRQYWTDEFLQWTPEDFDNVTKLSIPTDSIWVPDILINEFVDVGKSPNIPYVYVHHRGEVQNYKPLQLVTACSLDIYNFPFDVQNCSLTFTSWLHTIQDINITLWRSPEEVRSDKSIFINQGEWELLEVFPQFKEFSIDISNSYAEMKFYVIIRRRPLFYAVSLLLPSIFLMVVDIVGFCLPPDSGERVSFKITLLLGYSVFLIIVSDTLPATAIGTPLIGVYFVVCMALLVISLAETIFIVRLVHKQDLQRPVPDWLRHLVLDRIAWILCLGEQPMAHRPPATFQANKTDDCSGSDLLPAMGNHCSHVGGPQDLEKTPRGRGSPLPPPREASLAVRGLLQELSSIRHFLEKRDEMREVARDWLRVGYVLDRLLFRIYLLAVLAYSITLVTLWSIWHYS", "experiment": "TEVC in Xenopus oocytes expressing WT m5-HT3AR", "type": "cell-based", "conditions": "5-HT 30 μM", "description": "(§1) The recordings were performed at room temperature.\n(§2) Analysis of the data from the TEVC recordings were performed using Clampfit software version 10.5 (Molecular Devices, Crawley, UK) and GraphPad Prism version 7.0c (GraphPad Software, La Jolla, CA). Unless otherwise stated, the inward currents induced by agonists in oocytes were normalized to the maximal response elicited by a specific agonist (agonist Imax) on each oocyte. Concentration-response and concentration-inhibition curves were fitted in GraphPad Prism by nonlinear regression using the equation for sigmoidal dose-response with variable slope. Each data point represents the mean ± S.E.M. value of recordings performed on at least five oocytes in total from at least two different batches. For the data where statistical analysis was performed, a one-way ANOVA was used. The null hypothesis was rejected at P < 0.05, and the differences between the means were analyzed by Tukey’s multiple comparisons test."}, "ZAC/m5-HT3A-II": {"system": "ZAC/m5-HT3A-II", "experiment": "TEVC in oocytes expressing ZAC/m5-HT3A-II chimera", "type": "cell-based, mouse/human", "conditions": "Zn^2+ 10 mM; H^+ pH 4.0; data not shown", "description": "as §1"}, "ZAC^D116A/DH8A/H210A": {"molecular_target": "T2, ZAC^D116A/DH8A/H210A (Homo sapiens, UniProt Q401N2, A152T/D140A/D142A/H144A)", "T2 construct": "expressed in transfected cells; host or cells: Xenopus oocytes injected with cRNA (pUNIV vector)", "T2 sequence (Q401N2 26-412 D140A/D142A/H144A/A152T)": "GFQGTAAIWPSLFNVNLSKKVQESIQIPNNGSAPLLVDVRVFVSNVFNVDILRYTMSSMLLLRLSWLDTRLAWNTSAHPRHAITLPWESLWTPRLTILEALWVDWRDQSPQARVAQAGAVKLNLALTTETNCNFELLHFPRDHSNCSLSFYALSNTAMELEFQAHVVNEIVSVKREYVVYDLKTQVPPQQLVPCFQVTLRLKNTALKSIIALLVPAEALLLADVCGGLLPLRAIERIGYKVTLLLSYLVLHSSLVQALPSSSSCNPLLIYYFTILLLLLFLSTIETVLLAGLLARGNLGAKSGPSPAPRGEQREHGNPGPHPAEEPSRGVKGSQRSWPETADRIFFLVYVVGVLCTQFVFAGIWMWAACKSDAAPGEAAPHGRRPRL", "experiment": "TEVC in oocytes, Cluster 1 triple mutant", "type": "cell-based", "conditions": "10 mM Zn^2+", "description": "as §1\nas §2, with “For the data where statistical analysis was performed, a one-way ANOVA was used.” left out\n(§3) The putative involvement of candidate residues in Clusters 1, 2, 3 and 4 in Zn^2+ binding to ZAC was investigated in by an elaborate alanine mutagenesis scanning. […] The determined IpH 4.0 value was used in part as a control and in part to enable the distinction of ZAC mutants non-responsive to Zn^2+ due to elimination of their ability to bind the metal ion from those where the mutation had eliminated cell surface expression and/or disrupted overall functionality of the receptor complex. […]"}, "ZAC^H120L": {"system": "ZAC^H120L", "experiment": "TEVC in oocytes, ZAC H120L mutant", "type": "cell-based, human", "conditions": "agonist", "description": "as §1\nas §2, with “For the data where statistical analysis was performed, a one-way ANOVA was used.” left out\nas §3"}, "ZAC^H79A": {"system": "ZAC^H79A", "experiment": "TEVC in oocytes, ZAC H79A mutant", "type": "cell-based, human", "conditions": "agonist; parallel recordings", "description": "as §1\nas §2, with “For the data where statistical analysis was performed, a one-way ANOVA was used.” left out\nas §3"}, "ZAC^E89A": {"molecular_target": "T3, ZAC^E89A (Homo sapiens, UniProt Q401N2, A152T/E113A)", "T3 construct": "expressed in transfected cells; host or cells: Xenopus oocytes injected with cRNA (pUNIV vector)", "T3 sequence (Q401N2 26-412 E113A/A152T)": "as the sequence (Q401N2 26-412 D140A/D142A/H144A/A152T) above, with E88A, A115D, A117D, A119H counted along it", "experiment": "TEVC in oocytes, ZAC E89A mutant", "type": "cell-based", "conditions": "agonist; n = 7", "description": "as §1\nas §2, with “For the data where statistical analysis was performed, a one-way ANOVA was used.” left out\nas §3"}, "ZAC^D105A/E130A": {"molecular_target": "T4, ZAC^D105A/E130A (Homo sapiens, UniProt Q401N2, A152T/D129A/E154A)", "T4 construct": "expressed in transfected cells; host or cells: Xenopus oocytes injected with cRNA (pUNIV vector)", "T4 sequence (Q401N2 26-412 D129A/A152T/E154A)": "as the sequence (Q401N2 26-412 D140A/D142A/H144A/A152T) above, with D104A, A115D, A117D, A119H, E129A counted along it", "experiment": "TEVC in oocytes, ZAC D105A/E130A mutant", "type": "cell-based", "conditions": "10 mM Zn^2+; data not shown", "description": "as §1\nas §2, with “For the data where statistical analysis was performed, a one-way ANOVA was used.” left out\nas §3"}, "ZAC^L9′I": {"molecular_target": "T5, ZAC^L9′I (Homo sapiens, UniProt Q401N2, A152T/L270I)", "T5 construct": "expressed in transfected cells; host or cells: Xenopus oocytes (cRNA injection, pUNIV vector)", "T5 sequence (Q401N2 26-412 A152T/L270I)": "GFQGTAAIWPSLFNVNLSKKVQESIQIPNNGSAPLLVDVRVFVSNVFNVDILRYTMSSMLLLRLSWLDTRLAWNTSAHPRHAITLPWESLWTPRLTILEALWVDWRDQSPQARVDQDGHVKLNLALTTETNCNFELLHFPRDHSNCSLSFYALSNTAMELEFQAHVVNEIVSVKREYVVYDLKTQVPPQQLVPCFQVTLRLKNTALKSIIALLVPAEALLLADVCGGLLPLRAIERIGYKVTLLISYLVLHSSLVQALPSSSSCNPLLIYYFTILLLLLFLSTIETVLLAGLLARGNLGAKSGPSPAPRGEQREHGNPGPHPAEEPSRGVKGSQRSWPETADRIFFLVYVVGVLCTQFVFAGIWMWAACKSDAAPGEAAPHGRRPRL", "experiment": "TEVC in oocytes, ZAC L9′I mutant", "type": "cell-based", "conditions": "agonist; n = 8", "description": "as §1, §2"}}, "data": [{"smiles": "[Cl-].[Cl-].[Zn+2]", "note": "[Zn^2+, ZnCl2]", "values": [{"measurement": "modulation of 5-HT (EC80)-evoked currents", "setting": "WT m5-HT3AR", "value": "potentiated the 5-HT-induced response through WT m5-HT3AR at low-micromolar concentrations and inhibited it at higher concentrations"}, {"measurement": "agonist-evoked current", "setting": "ZAC/m5-HT3A-II", "value": "did not evoke significant currents"}, {"measurement": "I10 mM Zn2+ range", "setting": "ZAC^D116A/DH8A/H210A", "value": "10–30 nA"}, {"measurement": "fitted EC50 relative to WT ZAC (higher)", "setting": "ZAC^H120L", "value": "~ 3 fold"}, {"measurement": "fitted EC50 relative to WT ZAC (higher)", "setting": "ZAC^H79A", "value": 2.4, "unit": "fold"}, {"measurement": "EC50", "setting": "ZAC^E89A", "value": 160, "unit": "µM"}, {"measurement": "pEC50 ± S.E.M.", "setting": "ZAC^E89A", "value": "3.79 ± 0.07"}, {"measurement": "agonist responsiveness", "setting": "ZAC^D105A/E130A", "value": "non-responsive"}, {"measurement": "EC50", "setting": "ZAC^L9′I", "value": 24, "unit": "µM"}, {"measurement": "nH ± S.E.M. (Hill slope)", "setting": "ZAC^L9′I", "value": "0.8 ± 0.2"}, {"measurement": "pEC50 ± S.E.M.", "setting": "ZAC^L9′I", "value": "4.62 ± 0.15"}]}]}
